This note sets out measurements from patent US20260124197A1, “NOVEL HETEROBICYCLIC COMPOUND FOR INHIBITING YAP-TEAD INTERACTION AND PHARMACEUTICAL COMPOSITION COMPRISING SAME” (priority 2022, published 2026).

Experiment [1] concerns TEAD transcriptional activity. Nature of the experiment: TEAD reporter activity inhibition test (luciferase reporter, MCF7 cell line). It counts as cell-based. The settings on record: Homo sapiens; TEAD (GTIIC) firefly luciferase reporter MCF7 cell line, 24 hours, ONE-Glo luminescence. As to the method: Experimental Example 1: TEAD Reporter Activity Inhibition Test
The ability of the synthetic compounds to inhibit TEAD target gene transcription was measured. This evaluation method measures the transcriptional activity of TEAD by measuring the luciferase luminescence expressed when TEAD binds to a target gene and activates transcription using the MCF7 cell line (BPS Bioscience, Inc., USA) in which a firefly luciferase reporter gene has been introduced into the specific binding structure of TEAD, GTIIC (5′-ACATTCCA-3′). Cell lines were cultured in MEM medium added with 10% FBS, 1% Penicillin/Streptomycin, 1% non-essential amino acids, 10 μg/ml insulin, and 400 μg/ml Geneticin, and Geneticin was excluded when testing for inhibition of TEAD reporter activity. […] cells/100 μl were dispensed into a white 96-well plate and cultured for 6 hours. 50 μl of the test compound diluted to 3× concentration was mixed into each well. After 24 hours of cell culture, the luciferase signal was measured by luminescence using the ONE-Glo luciferase assay system (Promega, E6120) following the manufacturer's protocol. The 50% inhibition value (IC50) for TEAD transcriptional activity was calculated using GraphPad Prism 9.
If the IC50 value is less than 100 nM, it is indicated as A, if it is at least 100 nM but less than 500 nM, it is indicated as B, and if it is 500 nM or more, it is indicated as C.
On the technique in general: Reporter assays use an easily measured gene product as a stand-in for the process of interest.

The next experiment has as its system NCI-H226 cells. Nature of the experiment: Cell growth inhibition test (SRB). It counts as cell-based. To be noted: Homo sapiens, 144 h; NCI-H226 mesothelioma cell line lacking the NF2 gene, cultured for 6 days, SRB test method. The method, then:
Experimental Example 2: Cell Growth Inhibition Test
The synthetic compound was confirmed to inhibit cell growth in NCI-H226 cells. NCI-H226 is a mesothelioma cancer cell line lacking the NF2 gene, and was cultured in RPMI 1640 medium supplemented added with 10% FBS and 1% Penicillin/Streptomycin. Cultured cells were dispensed into 96-well plates at 0.7×10^3 cells/100 μl and cultured for 24 hours, then 100 μl of the test compound diluted to a 2× concentration were mixed into each well and cultured for 6 days. The SRB test method was used to measure cell growth inhibition, and the 50% inhibition value (GI50) for cell growth by the compound was calculated using GraphPad Prism 9.
If the GI50 value is less than 100 nM, it is indicated as A, and if it is 100 nM or more, it is indicated as B.

Bounds are passed on as bounds.

Take `CNS(=O)(=O)c1ccc2c(c1)c(-c1cn(C)cn1)cn2-c1ccc(C(F)(F)F)cc1` [Example 2, N-methyl-3-(1-methyl-1H-imidazol-4-yl)-1-(4-(trifluoromethyl)phenyl)-1H-indole-5-sulfonamide]: in experiment [1], the IC50 (as a rule, the concentration needed to halve the response being measured) was under 0.1 µM. Moreover, in the experiment on NCI-H226 cells, the concentration for 50% growth inhibition (GI50) (in general, the concentration that inhibits growth by half) is under 0.1 µM.

Take `CNS(=O)(=O)c1ccc2c(c1)c(-c1ccccn1)cn2-c1ccc(C(F)(F)F)cc1` [Example 8, N-methyl-3-(pyridin-2-yl)-1-(4-(trifluoromethyl)phenyl)-1H-indole-5-sulfonamide]: the half-maximal inhibitory concentration (IC50) in experiment [1] was under 0.1 µM. Besides, the GI50 in the experiment with NCI-H226 cells is under 0.1 µM.

For the compound `CNS(=O)(=O)c1ccc2c(c1)c(-c1ccc(C)o1)cn2-c1ccc(C(F)(F)F)cc1` [Example 10, N-methyl-3-(5-methylfuran-2-yl)-1-(4-(trifluoromethyl)phenyl)-1H-indole-5-sulfonamide], the IC50 in experiment [1] is under 0.1 µM. In the experiment on NCI-H226 cells, this compound came in with a GI50 of under 0.1 µM.

For the compound `CCn1cnc(-c2cn(-c3ccc(C(F)(F)F)cc3)c3ccc(S(=O)(=O)NC)cc23)c1` [Example 11, 3-(1-ethyl-1H-imidazol-4-yl)-N-methyl-1-(4-(trifluoromethyl)phenyl)-1H-indole-5-sulfonamide], in experiment [1], the 50% inhibitory concentration (IC50) was under 0.1 µM. In the experiment with NCI-H226 cells, this compound came in with a 50% growth inhibitory concentration (GI50) of under 0.1 µM.

Compound `CNS(=O)(=O)c1ccc2c(c1)c(-c1ccccc1F)cn2-c1ccc(C(F)(F)F)cc1` [Example 13, 3-(2-fluorophenyl)-N-methyl-1-(4-(trifluoromethyl)phenyl)-1H-indole-5-sulfonamide] gave a half-inhibitory concentration (IC50) in experiment [1] of under 0.1 µM. The GI50 in the experiment on NCI-H226 cells is at least 0.1 µM.

With `CNS(=O)(=O)c1ccc2c(c1)c(-c1cn(C3CCC3)cn1)cn2-c1ccc(C(F)(F)F)cc1` [Example 16], in experiment [1], the IC50 is under 0.1 µM. In the experiment with NCI-H226 cells, this compound yielded a concentration for 50% growth inhibition (GI50) of under 0.1 µM.

As for `CNS(=O)(=O)c1ccc2c(c1)c(-c1ncccc1F)cn2-c1ccc(C(F)(F)F)cc1` [Example 20, 3-(3-fluoropyridin-2-yl)-N-methyl-1-(4-(trifluoromethyl)phenyl)-1H-indole-5-sulfonamide], in experiment [1], the IC50 is under 0.1 µM. This compound also registered a concentration for 50% growth inhibition (GI50) with NCI-H226 cells of under 0.1 µM.

Turning to `CNS(=O)(=O)c1ccc2c(c1)c(-c1ccoc1)cn2-c1ccc(C(F)(F)F)cc1` [Example 23, 3-(furan-3-yl)-N-methyl-1-(4-(trifluoromethyl)phenyl)-1H-indole-5-sulfonamide], in experiment [1], the IC50 is under 0.1 µM. The compound further returned a GI50 with NCI-H226 cells of under 0.1 µM.

`CNS(=O)(=O)c1ccc2c(c1)c(-c1cn(C3CC3)cn1)cn2-c1ccc(C(F)(F)F)cc1` [Example 28, 3-(1-cyclopropyl-1H-imidazol-4-yl)-N-methyl-1-(4-(trifluoromethyl)phenyl)-1H-indole-5-sulfonamide] showed an IC50 in experiment [1] of under 0.1 µM. In addition, the concentration for 50% growth inhibition (GI50) in the experiment with NCI-H226 cells was under 0.1 µM.

Turning to `CNS(=O)(=O)c1ccc2c(c1)c(-c1ccco1)cn2-c1ccc(C(F)(F)F)cc1` [Example 31, 3-(furan-2-yl)-N-methyl-1-(4-(trifluoromethyl)phenyl)-1H-indole-5-sulfonamide], the IC50 in experiment [1] was under 0.1 µM. The compound further displayed a GI50 in the experiment with NCI-H226 cells of under 0.1 µM.

Consider `CNS(=O)(=O)c1ccc2c(c1)c(-c1cnc(C)o1)cn2-c1ccc(C(F)(F)F)cc1` [Example 32, N-methyl-3-(2-methyloxazol-5-yl)-1-(4-(trifluoromethyl)phenyl)-1H-indole-5-sulfonamide], for which, in experiment [1], the half-inhibitory concentration (IC50) was under 0.1 µM. In the experiment with NCI-H226 cells, this compound showed a GI50 of under 0.1 µM.

In the case of `CNS(=O)(=O)c1ccc2c(c1)c(-c1cn(CCOC)cn1)cn2-c1ccc(C(F)(F)F)cc1` [Example 38, 3-(1-(2-methoxyethyl)-1H-imidazol-4-yl)-N-methyl-1-(4-(trifluoromethyl)phenyl)-1H-indole-5-sulfonamide], the IC50 in experiment [1] was under 0.1 µM. Also, the GI50 in the experiment on NCI-H226 cells was under 0.1 µM.

`CNS(=O)(=O)c1ccc2c(c1)c(-c1cn(C3CC3)cn1)cn2-c1ccc(C(F)(F)F)cc1F` [Example 42, 3-(1-cyclopropyl-1H-imidazol-4-yl)-1-(2-fluoro-4-(trifluoromethyl)phenyl)-N-methyl-1H-indole-5-sulfonamide] gave a 50% inhibitory concentration (IC50) in experiment [1] of under 0.1 µM. Also, the GI50 in the experiment with NCI-H226 cells is under 0.1 µM.

`CNS(=O)(=O)c1cnc2c(c1)c(-c1cn(C3CC3)cn1)cn2-c1ccc(C(F)(F)F)cc1` [Example 43, 3-(1-cyclopropyl-1H-imidazol-4-yl)-N-methyl-1-(4-(trifluoromethyl)phenyl)-1H-pyrrolo[2,3-b]pyridine-5-sulfonamide] returned a half-inhibitory concentration (IC50) in experiment [1] of under 0.1 µM. In addition, the GI50 in the experiment on NCI-H226 cells is under 0.1 µM.

On to `CNS(=O)(=O)c1ccc2c(c1)c(-c1cn(C3CC3)cn1)nn2-c1ccc(C(F)(F)F)cc1` [Example 44, 3-(1-cyclopropyl-1H-imidazol-4-yl)-N-methyl-1-(4-(trifluoromethyl)phenyl)-1H-indazol-5-sulfonamide], for which the concentration for half-maximal inhibition (IC50) in experiment [1] is under 0.1 µM. This compound also registered a 50% growth inhibitory concentration (GI50) in the experiment on NCI-H226 cells of under 0.1 µM.

As for `CNS(=O)(=O)c1ccc2c(c1)c(-c1cn(CCS(C)(=O)=O)cn1)cn2-c1ccc(C(F)(F)F)cc1` [Example 48, N-methyl-3-(1-(2-(methylsulfonyl)ethyl)-1H-imidazol-4-yl)-1-(4-(trifluoromethyl)phenyl)-1H-indole-5-sulfonamide], the IC50 in experiment [1] lay in the range of 0.1 to 0.5 µM.
